In patent US20230065953A1, “NOVEL HETEROARYL-TRIAZOLE COMPOUNDS AS PESTICIDES” (Bayer Aktiengesellschaft, priority 2019, published 2023):

What was measured:
Type in all cases: in vivo
[1] = system: Rhipicephalus microplus larvae (strain Parkhurst, resistant against synthetic pyrethroids); experiment: Rhipicephalus (Boophilus) microplus in-vitro contact test, larval cattle tick; details: 5 μg/cm^2 (=500 g/ha), after 48 hours, read-out: efficacy (larvae dead or moribund)
Procedure, shortened: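 Efficacy is read at 48 h from negative geotactic behaviour after larvae are patted to the tube bottom, expressed as percentage dead or moribund. Larvae (20-50) sit in glass tubes whose walls carry an evaporated acetone film of compound (900 ppm corresponds to 5 μg/cm^2), kept at 27° C., 85% relative humidity.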

[2] = system: adult unfed cat fleas (Ctenocephalides felis); experiment: Ctenocephalides felis oral test; details: 48 h
Procedure, shortened: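 About 20 adult unfed fleas fed through parafilm on cattle blood containing compound (DMSO stock diluted in blood), blood held at 37 °C and fleas at room temperature. Mortality (%) scored after 2 days.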

[3] = system: adult brown dog ticks (Rhipicephalus sanguineus); experiment: Rhipicephalus sanguineus in-vitro contact test with adult brown dog ticks; details: 5 μg/cm^2 (=500 g/ha), after 48 hours, read-out: efficacy (ticks dead or moribund)
Protocol: Rhipicephalus sanguineus—In-Vitro Contact Tests with Adult Brown Dog Ticks
(§1) 9 mg compound is solved in 1 mL acetone and diluted with acetone to the desired concentration. 250 μL of the test solution is filled in 25 mL glass test tubes and homogeneously distributed on the inner walls by rotation and tilting on a shaking device (2 h at 30 rpm). With a compound concentration of 900 ppm, an inner surface of 44.7 cm^2 and a homogeneous distribution, a dose of 5 μg/cm^2 is achieved.
After the solvent has evaporated, each test tube is filled with 5-10 adult brown dog ticks (Rhipicephalus sanguineus), closed with a perforated lid and incubated in a lying position at room temperature and relative humidity. After 48 hours efficacy is determined. The ticks are patted on the ground of the tubes and are incubated on a heating plate at 45-50° C. for at most 5 minutes. Immotile or uncoordinated moving ticks, which are not able to escape the heat by climbing upwards, are marked as dead or moribund.
An efficacy of 100% means all ticks are dead or moribund; 0% means no ticks are dead or moribund.

[4] = system: fall armyworm larvae (Spodoptera frugiperda); experiment: Spodoptera frugiperda spray test (maize leaf sections); details: 168 h
Procedure, shortened: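 Maize leaf sections sprayed with compound in acetone/dimethylformamide, diluted in water with 1000 ppm alkylarylpolyglycol ether emulsifier. Dried sections infested with fall armyworm larvae. Mortality (%) scored after 7 days; 100% = all caterpillars killed.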

[5] = system: green peach aphid (Myzus persicae); experiment: Myzus persicae oral test; details: 120 h
Procedure, shortened: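 Compound was dissolved in acetone, diluted with water and mixed into IPL41 insect medium with sugar under a parafilm seal. A mixed aphid population fed through the parafilm, and mortality (%) was scored after 5 days.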

[6] = system: adult engorged female ticks (Rhipicephalus microplus); experiment: Rhipicephalus (Boophilus) microplus injection test; details: 168 h, 4 μg/animal, egg deposition after 7 days, read-out: efficacy (infertile eggs)
Procedure, shortened: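 Five adult engorged female ticks each injected into the abdomen with 1 μL of compound in DMSO, then kept in a climate chamber. Fertile egg deposition assessed after 7 days, with unclear eggs held until hatching around 42 days; efficacy 100% means all eggs infertile, 0% all fertile.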

[7] = system: larvae of the banded cucumber beetle (Diabrotica balteata); experiment: Diabrotica balteata spray test; details: 168 h, 100 g/ha (=32 μg/well), wheat seeds, after 7 days, read-out: efficacy (seedling growth)
Procedure, shortened: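 Wheat seeds germinated 1 day on agar were sprayed with compound in acetone/dimethylformamide with alkylarylpolyglycol ether emulsifier, diluted in emulsifier-containing water. Each unit then received 10-20 larvae, and % efficacy was scored after 7 days.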

[8] = system: adult cat fleas (Ctenocephalides felis); experiment: Ctenocephalides felis in-vitro contact test, adult cat flea; details: 5 μg/cm^2 (=500 g/ha), after 48 hours
Protocol: Ctenocephalides felis—In-Vitro Contact Tests Adult Cat Flea
as §1
After the solvent has evaporated, each test tube is filled with 5-10 adult cat fleas (Ctenocephalides felis), closed with a perforated lid and incubated in a lying position at room temperature and relative humidity. After 48 hours efficacy is determined. The fleas are patted on the ground of the tubes and are incubated on a heating plate at 45-50° C. for at most 5 minutes. Immotile or uncoordinated moving fleas, which are not able to escape the heat by climbing upwards, are marked as dead or moribund.
An efficacy of 100% means all fleas are dead or moribund; 0% means no fleas are dead or moribund.

[9] = system: green peach aphid (Myzus persicae); experiment: Myzus persicae spray test; details: foliar, 120 h, Chinese cabbage leaf disks, after 5 days
Procedure, shortened: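 Chinese cabbage leaf discs infested with all instars of the aphid were sprayed with compound prepared in acetone/DMF and diluted in water containing 1000 ppm emulsifier. Mortality (%) was scored after 5 days, 100% meaning all aphids killed and 0% none.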

[10] = system: larvae of the southern green stink bug (Nezara viridula); experiment: Nezara viridula spray test; details: in Hordeum vulgare, 96 h
Procedure, shortened: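 Barley plants sprayed with compound in acetone/dimethylformamide, diluted in water with 1000 ppm alkylarylpolyglycol ether emulsifier, then infested with Nezara viridula larvae. Percent mortality read after 4 days (100% = all killed, 0% = none).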

Row | SMILES | pest or weed control at 5 µg/cm2 [1] [%] | mortality at 100 ppm [2] [%] | pest or weed control at 5 µg/cm2, 500 g/ha [3] [%] | mortality at 100 g/ha [4] [%] | mortality at 4 ppm [5] [%] | pest or weed control at 0.004 mg [6] [%] | pest or weed control at 32 µg/disc, 100 g/ha [7] [%] | efficacy (fleas dead or moribund) [8] [%] | mortality at 100 g/ha [9] [%] | mortality at 500 g/ha [10] [%]
1 | COCCN(C)C(=O)c1cnc(-n2nc(C)nc2[C@H](C)NC(=O)c2cc(C(F)(F)F)cc(C(F)(F)F)c2)s1 [I-3] | 100 | 80 | 100 | 100 | 90 | 100 |  |  |  | 
2 | Cc1nc([C@H](C)NC(=O)c2cc(C(F)(F)F)cc(C(F)(F)F)c2)n(-c2ncc(C(=O)N(C)C3CC3)s2)n1 [I-7] | 100 | 100 | 100 | 100 | 100 | 100 | 100 |  |  | 
3 | Cc1nc([C@H](C)NC(=O)c2cc(C(F)(F)F)cc(C(F)(F)F)c2)n(-c2ncc(C(=O)N(C)CC(C)C)s2)n1 [I-8] | 100 | 100 | 100 | 100 | 100 | 100 | 100 |  |  | 
4 | Cc1nc([C@H](C)NC(=O)c2cc(C(F)(F)F)cc(C(F)(F)F)c2)n(-c2ncc(C(=O)N(C)CC(F)(F)F)s2)n1 [I-11] | 100 | 100 | 100 | 100 | 100 | 100 | 100 |  |  | 
5 | Cc1nc([C@H](C)NC(=O)c2cc(Br)cc(Br)c2)n(-c2ncc(C#N)s2)n1 [I-13] | 100 | 100 | 100 | 83 |  | 100 | 100 |  |  | 
6 | Cc1nc([C@H](C)NC(=O)c2cc(Br)cc(C#N)c2)n(-c2ncc(C#N)s2)n1 [I-15] | 90 | 100 | 100 | 83 |  | 100 | 100 | 100 |  | 
7 | Cc1nc([C@H](C)NC(=O)c2cc(Br)cc(OC(F)(F)F)c2)n(-c2ncc(C#N)s2)n1 [I-17] | 100 | 100 | 100 | 100 | 100 | 100 | 100 | 80 |  | 
8 | Cc1nc([C@H](C)NC(=O)c2cc(Cl)cc(C(F)(F)C(F)(F)F)c2)n(-c2ncc(C#N)s2)n1 [I-19] | 100 | 100 | 80 | 100 |  | 100 | 100 |  |  | 
9 | Cc1nc([C@H](C)NC(=O)c2cc(Cl)cc(C(F)(F)F)c2)n(-c2ncc(C(=O)N(C)CC#N)s2)n1 [I-23] | 100 | 90 | 100 | 83 | 100 | 100 | 100 | 100 | 90 | 
10 | Cc1nc([C@H](C)NC(=O)c2cc(OC(F)(F)F)cc(C3CC3)c2)n(-c2ncc(C(=O)N(C)CC#N)s2)n1 [I-24, N-(cyanomethyl)-2-(5-{(1S)-1-[3-cyclopropyl-5-(trifluoromethoxy)benzamido]ethyl}-3-methyl-1H-1,2,4-triazol-1-yl)-N-methyl-1,3-thiazole-5-carboxamide] | 100 | 100 | 80 | 100 | 100 | 100 | 100 | 100 | 100 | 
11 | CC(NC(=O)c1cc(OC(F)(F)F)cc(C2CC2)c1)c1ncnn1-c1ncc(C#N)s1 (centres unmarked) [I-30] | 100 | 100 | 100 | 100 | 100 | 100 | 100 |  |  | 
12 | C[C@H](NC(=O)c1cc(I)cc(OC(F)F)c1)c1ncnn1-c1ncc(C#N)s1 [I-38] | 100 |  | 80 |  |  |  | 100 | 90 |  | 
13 | CNC(=O)c1cnc(-n2nc(C)nc2[C@H](C)NC(=O)c2cc(Cl)cc(C(F)(F)F)c2)s1 [I-69] | 80 |  | 80 | 100 | 100 | 100 | 100 | 90 | 90 | 
14 | Cc1nc([C@H](C)NC(=O)c2cc(Br)cc(Br)c2)n(-c2ncc(C(=O)N(C)CC#N)s2)n1 [I-72] | 100 |  | 100 | 100 | 100 |  | 100 | 80 |  | 
15 | Cc1nc([C@H](C)NC(=O)c2cc(Br)cc(OC(F)(F)F)c2)n(-c2ncc(C(=O)N(C)CC#N)s2)n1 [I-125] | 100 |  | 80 | 100 |  |  | 100 | 100 | 90 | 100
